# Like-named read-outs stand apart in the source and are kept apart here.
# How the values were obtained:
# [1] = molecular target: KRAS G12S (Homo sapiens, UniProt P01116+P62937, G12S); experiment: Disruption of BRAF RBD interaction with Ras (FRET / MOA assay, with Cyclophilin A); format: biochemical; details: read-out: KRAS G12S FRET data, IC50
# Source text: (§1) This protocol may also be executed substituting other Ras proteins or nucleotides.
# (§2) The purpose of this biochemical assay was to measure the ability of test compounds to facilitate ternary complex formation between a nucleotide-loaded K-Ras isoform and Cyclophilin A; the resulting ternary complex disrupts binding to a BRAF^RBD construct, inhibiting K-Ras signaling through a RAF effector. Data is reported as IC50 values.
# (§3) Compound was present in plate wells as a 10-point 3-fold dilution series starting at a final concentration of 30 μM. After incubation at 25° C. for 3 hours, a mixture of Anti-His Eu-W1024 and anti-GST allophycocyanin was then added to assay sample wells at final concentrations of 10 nM and 50 nM, respectively, and the reaction incubated for an additional 1.5 hours. […] Compounds that facilitate disruption of a K-Ras:RAF complex were identified as those eliciting a decrease in the TR-FRET ratio relative to DMSO control wells.
# as §2, with “BRAF^RBDD” for “BRAF^RBD”
# [2] = molecular target: KRAS G13D (Homo sapiens, UniProt P01116+P62937, G13D); experiment: as above; format: biochemical; details: KRAS G13D; read-out: KRAS G13D FRET data IC50
# Source text: as §1, §2, §3
# as §2, with “BRAF^RBDD” for “BRAF^RBD”
# [3] = molecular target: NRAS G12C (Homo sapiens, UniProt P01111+P62937, G12C); experiment: as above; format: biochemical; details: NRAS G12C; read-out: NRAS G12C FRET data IC50
# Source text: as §1, §2, §3
# as §2, with “BRAF^RBDD” for “BRAF^RBD”
# [4] = molecular target: KRAS G13C (Homo sapiens, UniProt P01116+P62937, G13C); experiment: as above; format: biochemical
# Source text: as §1, §2, §3
# as §2, with “BRAF^RBDD” for “BRAF^RBD”
# [5] = molecular target: KRAS G12C (Homo sapiens, UniProt P01116+P62937, G12C); experiment: as above; format: biochemical
# Source text: as §1, §2, §3
# as §2, with “BRAF^RBDD” for “BRAF^RBD”
# [6] = molecular target: KRAS G12V (Homo sapiens, UniProt P01116+P62937, G12V); experiment: as above; format: biochemical; details: KRAS G12V; read-out: KRAS G12V FRET data IC50
# Source text: as §1, §2, §3
# as §2, with “BRAF^RBDD” for “BRAF^RBD”
# [7] = molecular target: KRAS WT (Homo sapiens, UniProt P01116+P62937); experiment: as above; format: biochemical; details: KRAS WT; read-out: KRAS WT FRET data IC50
# Source text: as §1, §2, §3
# as §2, with “BRAF^RBDD” for “BRAF^RBD”
# [8] = tested on: NCI-H358 (K-Ras G12C); experiment: CellTiter-Glo cell viability assay, 5-day treatment; format: cell-based; details: Homo sapiens
# Method: Protocol: CellTiter-Glo® Cell Viability Assay
# Note—The following protocol describes a procedure for monitoring cell viability of K-Ras mutant cancer cell lines in response to a compound of the invention. Other RAS isoforms may be employed, though the number of cells to be seeded will vary based on cell line used.
# (§4) Test compounds (132.5 nL) were directly dispensed into the assay plates containing cells. […] On day 5, assay plates and their contents were equilibrated to room temperature for approximately 30 minutes. […] Luminescence was measured using the PerkinElmer Enspire. Data were normalized by the following: (Sample signal/Avg. DMSO)*100. The data were fit using a four-parameter logistic fit.
# as §4, with “nl)” for “nL)”
# [9] = molecular target: KRAS G12D (Homo sapiens, UniProt P01116+P62937, G12D); experiment: Disruption of BRAF RBD interaction with Ras (FRET / MOA assay, with Cyclophilin A); format: biochemical; details: read-out: KRAS G12D FRET data, IC50
# Source text: as §1, §2, §3
# as §2, with “BRAF^RBDD” for “BRAF^RBD”
# [10] = KRAS G12C, read-out: KRAS G12C FRET data IC50
# [11] = NCI-H358, H358, K-Ras G12C, read-out: Additional H358 Cell Viability assay data (K-Ras G12C, IC50)
# [12] = read-out: KRAS G13C FRET data, IC50
# [13] = read-out: KRAS G12C FRET data, IC50
# [14] = NCI-H358, 120 h, 5-day treatment, read-out: H358 Cell Viability assay data (K-Ras G12C, IC50)
# KRAS G12V, sequence (P01116 1-169 isoform P01116-2 G12V limits assumed): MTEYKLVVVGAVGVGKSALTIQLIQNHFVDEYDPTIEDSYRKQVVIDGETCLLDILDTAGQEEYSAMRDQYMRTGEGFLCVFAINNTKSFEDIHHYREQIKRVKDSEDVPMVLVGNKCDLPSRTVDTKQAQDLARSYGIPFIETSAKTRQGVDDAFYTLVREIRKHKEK
# KRAS G12V, sequence (P62937 whole entry): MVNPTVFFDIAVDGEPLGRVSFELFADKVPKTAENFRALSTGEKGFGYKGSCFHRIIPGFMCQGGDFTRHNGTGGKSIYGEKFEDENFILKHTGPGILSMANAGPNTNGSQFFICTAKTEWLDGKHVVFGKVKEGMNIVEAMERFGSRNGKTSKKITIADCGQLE
# KRAS G12D, sequence (P01116 1-169 isoform P01116-2 G12D limits assumed): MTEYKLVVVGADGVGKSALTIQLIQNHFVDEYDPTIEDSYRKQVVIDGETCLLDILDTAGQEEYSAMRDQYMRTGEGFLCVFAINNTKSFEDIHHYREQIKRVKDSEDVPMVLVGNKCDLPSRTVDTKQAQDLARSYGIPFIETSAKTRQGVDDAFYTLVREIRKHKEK
# KRAS G12D, sequence (P62937 whole entry): as the sequence (P62937 whole entry) above
# KRAS G13D, sequence (P01116 1-169 isoform P01116-2 G13D limits assumed): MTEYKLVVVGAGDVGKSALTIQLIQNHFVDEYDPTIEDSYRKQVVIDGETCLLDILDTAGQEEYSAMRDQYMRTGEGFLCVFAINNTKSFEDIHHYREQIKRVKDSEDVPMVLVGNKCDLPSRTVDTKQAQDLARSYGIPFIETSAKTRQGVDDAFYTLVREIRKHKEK
# KRAS G13D, sequence (P62937 whole entry): as the sequence (P62937 whole entry) above
# KRAS G12C, sequence (P01116 1-169 isoform P01116-2 G12C): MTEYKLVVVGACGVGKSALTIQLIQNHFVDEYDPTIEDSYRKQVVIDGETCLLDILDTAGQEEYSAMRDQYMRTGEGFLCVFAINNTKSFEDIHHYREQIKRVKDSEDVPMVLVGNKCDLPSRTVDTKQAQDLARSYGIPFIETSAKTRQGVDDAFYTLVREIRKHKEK
# KRAS G12C, sequence (P62937 whole entry): as the sequence (P62937 whole entry) above
# KRAS G12S, sequence (P01116 1-169 isoform P01116-2 G12S limits assumed): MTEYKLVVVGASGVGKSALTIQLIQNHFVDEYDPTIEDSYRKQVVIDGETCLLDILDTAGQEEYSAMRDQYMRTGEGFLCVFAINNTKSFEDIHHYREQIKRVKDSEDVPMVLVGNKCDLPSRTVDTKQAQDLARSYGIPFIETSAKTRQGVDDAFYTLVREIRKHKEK
# KRAS G12S, sequence (P62937 whole entry): as the sequence (P62937 whole entry) above
# NRAS G12C, sequence (P01111 whole entry G12C): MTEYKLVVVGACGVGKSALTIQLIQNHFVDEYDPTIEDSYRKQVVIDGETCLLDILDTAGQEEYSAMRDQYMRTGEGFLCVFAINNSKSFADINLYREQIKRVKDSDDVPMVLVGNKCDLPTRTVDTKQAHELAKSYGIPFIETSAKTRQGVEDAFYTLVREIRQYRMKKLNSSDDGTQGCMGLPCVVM
# NRAS G12C, sequence (P62937 whole entry): as the sequence (P62937 whole entry) above
# KRAS G13C, sequence (P01116 1-169 isoform P01116-2 G13C): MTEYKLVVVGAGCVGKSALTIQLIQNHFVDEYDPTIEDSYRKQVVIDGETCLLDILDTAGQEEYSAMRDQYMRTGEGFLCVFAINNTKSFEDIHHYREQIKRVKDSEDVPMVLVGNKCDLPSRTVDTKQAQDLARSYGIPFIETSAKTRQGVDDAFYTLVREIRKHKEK
# KRAS G13C, sequence (P62937 whole entry): as the sequence (P62937 whole entry) above
# KRAS WT, sequence (P01116 1-169 isoform P01116-2 limits assumed): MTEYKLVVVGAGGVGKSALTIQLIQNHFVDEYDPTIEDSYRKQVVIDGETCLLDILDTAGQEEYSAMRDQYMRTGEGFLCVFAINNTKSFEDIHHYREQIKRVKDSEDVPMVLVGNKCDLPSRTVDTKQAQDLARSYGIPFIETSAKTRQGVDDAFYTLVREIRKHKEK
# KRAS WT, sequence (P62937 whole entry): as the sequence (P62937 whole entry) above
IC50 [1] [µM],IC50 [2] [µM],IC50 [3] [µM],IC50 [6] [µM],IC50 [7] [µM],"IC50 [8, 11] [µM]",IC50 [9] [µM],"IC50 [4, 12] [µM]","IC50 [8, 14] [µM]",SMILES,other results
> 10,> 10,1 to 10,> 10,> 10,0.1 to 1,,,,C=CC(=O)N1CC(OC[C@H](C(=O)N[C@H]2Cc3cccc(c3)-c3ccc4c(c3)c(c(-c3cccnc3[C@H](C)OC)n4CC(F)(F)F)CC(C)(C)COC(=O)[C@@H]3CCCN(N3)C2=O)C(C)C)C1 [Example A453],"IC50 ([4]; KRAS G13C, read-out: KRAS G13C FRET data IC50): > 10 µM; IC50 [5, 10]: 1 to 10 µM"
,,,,,0.1 to 1,,,,"C=CC(=O)N1CC[C@H](C(=O)N(C)[C@H](C(=O)N[C@H]2C[C@H]3CN(CCO3)c3ccc4c(c3)c(c(-c3cccnc3[C@H](C)OC)n4CC)CC(C)(C)COC(=O)[C@@H]3CCCN(N3)C2=O)C(C)C)C1 (atropisomer, axis not shown) [Example A378]",
,,,,,,,,0.1 to 1,CCn1c(-c2cccnc2[C@H](C)OC)c2c3cc(ccc31)-c1csc(n1)C[C@H](NC(=O)[C@H](C(C)C)N1CCC3(CCN(C(=O)OC)C3)C1=O)C(=O)N1CCC[C@H](N1)C(=O)OCC(C)(C)C2 (stereo partly drawn) [Example A221],
,> 10,> 10,,,> 1,,,,C=CC(=O)N1CC[C@H](C(=O)N(C)[C@H](C(=O)N[C@H]2CCC(=O)N(C)Cc3ccc4c(c3)c(c(-c3cccnc3[C@H](C)OC)n4CC)CC(C)(C)COC(=O)[C@@H]3CCCN(N3)C2=O)C(C)C)C1 [Example A500],"IC50 [5, 10]: > 10 µM"

# Continued, compound first:
SMILES,IC50 [1] [µM],IC50 [2] [µM],IC50 [3] [µM],IC50 [6] [µM],IC50 [7] [µM],"IC50 [8, 11] [µM]",IC50 [9] [µM],"IC50 [4, 12] [µM]","IC50 [8, 14] [µM]",other results
"C=CC(=O)N1CC[C@H](C(=O)N(C)[C@H](C(=O)N[C@H]2Cc3cc(O)cc(c3)-c3ccc4c(c3)c(c(-c3cccnc3[C@@H](OC)C3CC3)n4CC)CC(C)(C)COC(=O)[C@@H]3CCCN(N3)C2=O)C(C)C)C1 (atropisomer, axis not shown) [Example A206]",,,,,,0.1 to 1,,,,
CCn1c(-c2cnccc2COC)c2c3cc(ccc31)-c1cc(O)cc(c1)C[C@H](NC(=O)[C@H](C(C)C)N(C)C(=O)[C@H]1CCN(C(C)C)C1)C(=O)N1CCC[C@H](N1)C(=O)OCC(C)(C)C2 [Example A41],0.1 to 1,,,1 to 10,0.1 to 1,,0.1 to 1,0.01 to 0.1,1 to 10,"IC50 [5, 13]: 0.1 to 1 µM"
CCn1c(-c2cccnc2[C@H](C)OC)c2c3cc(ccc31)-c1cc(O)cc(c1)C[C@H](NC(=O)[C@H](C(C)C)N(C)C(=O)C1CCCC1)C(=O)N1CCC[C@H](N1)C(=O)OCC(C)(C)C2 [Example A219],,,,,,,,,0.1 to 1,
C=CC(=O)N1CC[C@H](C(=O)N(C)[C@H](C(=O)N[C@H]2Cc3cc(O)cc(c3)-c3ccc4c(c3)c(c(-c3ccncc3COC)n4CC)CC(C)(C)COC(=O)[C@@H]3CCCN(N3)C2=O)C(C)C)C1 [Example A91],,,,,,< 0.01,,,,
CCn1c(-c2cccnc2COC)c2c3cc(ccc31)-c1cc(O)cc(c1)C[C@H](NC(=O)[C@H](C(C)C)N(C)C(=O)[C@H](N)CCCNC(=N)N)C(=O)N1CCC[C@H](N1)C(=O)OCC(C)(C)C2 [Example A48],0.1 to 1,,,1 to 10,0.1 to 1,,0.1 to 1,0.1 to 1,> 10,"IC50 [5, 13]: 0.1 to 1 µM"
CCn1c(-c2cccnc2[C@H](C)OC)c2c3cc(ccc31)-c1cc(O)cc(c1)C[C@H](NC(=O)[C@H](C(C)C)N(C)C(=O)[C@@H]1CNC[C@@H]1C)C(=O)N1CCC[C@H](N1)C(=O)OCC(C)(C)C2 [Example A128],0.01 to 0.1,0.01 to 0.1,0.01 to 0.1,0.1 to 1,0.01 to 0.1,,0.01 to 0.1,0.01 to 0.1,1 to 10,
